Reference: publication PMC11995724, “Antibiotic target discovery by integrated phenotypic and activity-based profiling of electrophilic fragments” (Cell chemical biology, 2025)
Structures can show the parent of a compound that is named as a salt.

Experiment: in vitro
Details: human, hek293t cells

**Q.** Which viability at 48 h, 25 µM does the source give for `O=C(CCl)NCC(c1ccccc1Cl)N1CCCC1` (stereo not shown) [6-G17, 2-chloro-N-[2-(2-chlorophenyl)-2-(pyrrolidin-1-yl)ethyl]acetamide hydrochloride] here?
**A.** 104%

**Q.** Which viability at 48 h, 25 µM does the source give for `O=S(=O)(CC=C(Cl)Cl)N1CCSSCC1` [10-P19, 5-(3,3-dichloroprop-2-ene-1-sulfonyl)-1,2,5-dithiazepane] here?
**A.** 127%

**Q.** With `Cc1cc(C)n2c(-c3c(Cl)cccc3NC(=O)CCl)nnc2n1` [5-M16, 2-chloro-N-(3-chloro-2-{5,7-dimethyl-[1,2,4]triazolo[4,3-a]pyrimidin-3-yl}phenyl)acetamide] as the compound, how does the viability at 48 h, 25 µM read?
**A.** 1.81%

**Q.** With `CCc1nc(C2CCCN2C(=O)CCl)no1` (stereo not shown) [5-C08, 2-chloro-1-[2-(5-ethyl-1,2,4-oxadiazol-3-yl)pyrrolidin-1-yl]ethan-1-one] as the compound, how does the viability at 48 h, 25 µM read?
**A.** 1.18%

**Q.** With `C=CC(=O)N(C)CC(=O)N1CCC[C@H](NC(=O)C(F)(F)F)[C@@H]1C` (racemic) [2-A20, rac-N-methyl-N-{2-[(2R,3R)-2-methyl-3-(2,2,2-trifluoroacetamido)piperidin-1-yl]-2-oxoethyl}prop-2-enamide] as the compound, how does the viability at 48 h, 25 µM read?
**A.** 96%

**Q.** With `C=CC(=O)NC(C)(C)c1nc(-c2ccccc2F)c(C)s1` [1-H04, N-{2-[4-(2-fluorophenyl)-5-methyl-1,3-thiazol-2-yl]propan-2-yl}prop-2-enamide] as the compound, how does the viability at 48 h, 25 µM read?
**A.** 73.5%

**Q.** For `C=CC(=O)NCc1conc1C1CCC1` [1-N06, N-[(3-cyclobutyl-1,2-oxazol-4-yl)methyl]prop-2-enamide], which viability at 48 h, 25 µM is on record?
**A.** 69.5%

**Q.** With `CC(Cl)C(=O)NCc1ccc(Cl)cc1` (stereo not shown) [6-I04, 2-chloro-N-[(4-chlorophenyl)methyl]propanamide] as the compound, how does the viability at 48 h, 25 µM read?
**A.** 107%

**Q.** Which viability at 48 h, 25 µM does the source give for `N#CC(=Cc1ccc(N2CCOCC2)cc1)C(=O)Nc1ccccc1F` [9-B03, 2-cyano-N-(2-fluorophenyl)-3-[4-(morpholin-4-yl)phenyl]prop-2-enamide] here?
**A.** 89.3%

**Q.** Which viability at 48 h, 25 µM does the source give for `C=CC(=O)NCc1cnc2ccsc2c1` [2-D11, N-({thieno[3,2-b]pyridin-6-yl}methyl)prop-2-enamide] here?
**A.** 74.3%

**Q.** With `C=CC(=O)N1CCN(C(=O)c2ccc(OC)c(OC)c2OC)CC1` [1-H12, 1-[4-(2,3,4-trimethoxybenzoyl)piperazin-1-yl]prop-2-en-1-one] as the compound, how does the viability at 48 h, 25 µM read?
**A.** 80%

**Q.** For `COCc1nc(C2CCCCCN2C(=O)CCl)no1` (stereo not shown) [5-B07, 2-chloro-1-{2-[5-(methoxymethyl)-1,2,4-oxadiazol-3-yl]azepan-1-yl}ethan-1-one], which viability at 48 h, 25 µM is on record?
**A.** 1.24%

**Q.** With `C=CC(=O)Nc1ccccc1-c1nnnn1C` [1-M05, N-[2-(1-methyl-1H-1,2,3,4-tetrazol-5-yl)phenyl]prop-2-enamide] as the compound, how does the viability at 48 h, 25 µM read?
**A.** 79.7%

**Q.** For `CC(Cl)C(=O)NC1CCc2cnn(C(C)C)c2C1` (stereo not shown) [7-H05, 2-chloro-N-[1-(propan-2-yl)-4,5,6,7-tetrahydro-1H-indazol-6-yl]propanamide], which viability at 48 h, 25 µM is on record?
**A.** 107%

**Q.** Which viability at 48 h, 25 µM does the source give for `N#CC(=Cc1ccccc1OC(F)F)C(=O)Nc1nccs1` [9-K19, 2-cyano-3-[2-(difluoromethoxy)phenyl]-N-(1,3-thiazol-2-yl)prop-2-enamide] here?
**A.** 119%

**Q.** With `Cc1ncsc1C=C(C#N)C(=O)NCCc1ccccc1` [9-H06, 2-cyano-3-(4-methyl-1,3-thiazol-5-yl)-N-(2-phenylethyl)prop-2-enamide] as the compound, how does the viability at 48 h, 25 µM read?
**A.** 99.1%

**Q.** With `C=CC(=O)N1C2C=C(c3nccn3C)CC1CC2` (stereo not shown) [3-G03, 1-[3-(1-methyl-1H-imidazol-2-yl)-8-azabicyclo[3.2.1]oct-2-en-8-yl]prop-2-en-1-one] as the compound, how does the viability at 48 h, 25 µM read?
**A.** 52.5%

**Q.** With `C=CC(=O)NC1CCN(c2nc(C3CC3)cc(C(F)(F)F)n2)CC1` [1-L03, N-{1-[4-cyclopropyl-6-(trifluoromethyl)pyrimidin-2-yl]piperidin-4-yl}prop-2-enamide] as the compound, how does the viability at 48 h, 25 µM read?
**A.** 108%

**Q.** With `CC1CC(c2ccccc2F)N(C(=O)C(C)Cl)C1` (stereo not shown) [6-H18, 2-chloro-1-[2-(2-fluorophenyl)-4-methylpyrrolidin-1-yl]propan-1-one] as the compound, how does the viability at 48 h, 25 µM read?
**A.** 116%

**Q.** Which viability at 48 h, 25 µM does the source give for `COc1ccc(CNC(=O)CCl)cc1OC` [5-O11, 2-chloro-N-[(3,4-dimethoxyphenyl)methyl]acetamide] here?
**A.** 23.8%

**Q.** For `C=CC(=O)NCc1coc(-c2ccc(C)cc2)n1` [2-F13, N-{[2-(4-methylphenyl)-1,3-oxazol-4-yl]methyl}prop-2-enamide], which viability at 48 h, 25 µM is on record?
**A.** 48.2%

**Q.** For `COc1cc(C=C(C#N)C(=O)Nc2ccccn2)ccc1O` [9-P08, 2-cyano-3-(4-hydroxy-3-methoxyphenyl)-N-(pyridin-2-yl)prop-2-enamide], which viability at 48 h, 25 µM is on record?
**A.** 124%

**Q.** Which viability at 48 h, 25 µM does the source give for `CC(Cl)C(=O)N1CCCCCC1c1noc(-c2cnn(C)c2)n1` (stereo not shown) [7-C05, 2-chloro-1-{2-[5-(1-methyl-1H-pyrazol-4-yl)-1,2,4-oxadiazol-3-yl]azepan-1-yl}propan-1-one] here?
**A.** 92.8%

**Q.** Which viability at 48 h, 25 µM does the source give for `O=C(CCl)Nc1ccc(F)cc1[N+](=O)[O-]` [4-I07, 2-chloro-N-(4-fluoro-2-nitrophenyl)acetamide] here?
**A.** 0.642%

**Q.** For `CC(Cl)C(=O)NC1CCc2nc(-c3cc(F)ccc3F)cn2C1` (stereo not shown) [7-K10, 2-chloro-N-[2-(2,5-difluorophenyl)-5H,6H,7H,8H-imidazo[1,2-a]pyridin-6-yl]propanamide], which viability at 48 h, 25 µM is on record?
**A.** 77.5%

**Q.** For `CC(=Cc1ccccc1)C=C(C#N)C(=O)Nc1nccs1` [8-F08, 2-cyano-4-methyl-5-phenyl-N-(1,3-thiazol-2-yl)penta-2,4-dienamide], which viability at 48 h, 25 µM is on record?
**A.** 84.2%

**Q.** For `O=C(CCl)NCCOc1cccc(Cl)c1` [6-G05, 2-chloro-N-[2-(3-chlorophenoxy)ethyl]acetamide], which viability at 48 h, 25 µM is on record?
**A.** 107%

**Q.** With `Cc1ccc(C=C(C#N)C(=O)NC(C)C)s1` [9-O11, 2-cyano-3-(5-methylthiophen-2-yl)-N-(propan-2-yl)prop-2-enamide] as the compound, how does the viability at 48 h, 25 µM read?
**A.** 139%

**Q.** For `C=CC(=O)NCC(=C)c1ccccc1` [2-B09, N-(2-phenylprop-2-en-1-yl)prop-2-enamide], which viability at 48 h, 25 µM is on record?
**A.** 57%

**Q.** With `COc1cc(Cl)c(C)cc1N1C(=O)C=CC1=O` [10-B15, 1-(4-chloro-2-methoxy-5-methylphenyl)-2,5-dihydro-1H-pyrrole-2,5-dione] as the compound, how does the viability at 48 h, 25 µM read?
**A.** 85.2%

**Q.** For `C=CC(=O)NC(C)c1cn(-c2ccccc2)nn1` (stereo not shown) [1-N04, N-[1-(1-phenyl-1H-1,2,3-triazol-4-yl)ethyl]prop-2-enamide], which viability at 48 h, 25 µM is on record?
**A.** 78.9%

**Q.** For `CC(Cl)C(=O)NC(C)c1ccc2c(c1)CCCC2` (stereo not shown) [6-A07, 2-chloro-N-[1-(5,6,7,8-tetrahydronaphthalen-2-yl)ethyl]propanamide], which viability at 48 h, 25 µM is on record?
**A.** 93.1%

**Q.** For `N#CC(=Cc1ccccc1)C(=O)NC1CC1` [9-M15, 2-cyano-N-cyclopropyl-3-phenylprop-2-enamide], which viability at 48 h, 25 µM is on record?
**A.** 128%

**Q.** Which viability at 48 h, 25 µM does the source give for `C=CC(=O)N1CCOCC1c1ccnn1C` (stereo not shown) [3-I19, 1-[3-(1-methyl-1H-pyrazol-5-yl)morpholin-4-yl]prop-2-en-1-one] here?
**A.** 49.7%

**Q.** For `Cc1cc(C(=O)CCl)c(C)n1-c1ccc(C(C)C)cc1` [10-J12, 2-chloro-1-{2,5-dimethyl-1-[4-(propan-2-yl)phenyl]-1H-pyrrol-3-yl}ethan-1-one], which viability at 48 h, 25 µM is on record?
**A.** 0.754%

**Q.** For `Cc1noc(C)c1C(=O)CCl` [10-K13, 2-chloro-1-(3,5-dimethyl-1,2-oxazol-4-yl)ethan-1-one], which viability at 48 h, 25 µM is on record?
**A.** 56.9%

**Q.** With `CC(C)NC(=O)C(C#N)=Cc1c(Cl)cccc1Cl` [9-E13, 2-cyano-3-(2,6-dichlorophenyl)-N-(propan-2-yl)prop-2-enamide] as the compound, how does the viability at 48 h, 25 µM read?
**A.** 87%

**Q.** With `C=CC(=O)Nc1cc(S(=O)(=O)N(C)C)cc(C)c1C` [1-K11, N-[5-(dimethylsulfamoyl)-2,3-dimethylphenyl]prop-2-enamide] as the compound, how does the viability at 48 h, 25 µM read?
**A.** 71.3%

**Q.** Which viability at 48 h, 25 µM does the source give for `CC(Cl)C(=O)N1CCN(c2oc(-c3ccco3)nc2C#N)CC1` (stereo not shown) [7-D13, 5-[4-(2-chloropropanoyl)piperazin-1-yl]-2-(furan-2-yl)-1,3-oxazole-4-carbonitrile] here?
**A.** 85%

**Q.** For `Cc1cc(C)c(CCNC(=O)CCl)c(C)c1` [6-K06, 2-chloro-N-[2-(2,4,6-trimethylphenyl)ethyl]acetamide], which viability at 48 h, 25 µM is on record?
**A.** 14.3%

**Q.** Which viability at 48 h, 25 µM does the source give for `C=CC(=O)N(C)Cc1cccnc1` [3-L11, N-methyl-N-[(pyridin-3-yl)methyl]prop-2-enamide] here?
**A.** 82%

**Q.** Which viability at 48 h, 25 µM does the source give for `COc1ccc(CCN2C(=O)C=CC2=O)cc1OC` [10-H07, 1-[2-(3,4-dimethoxyphenyl)ethyl]-2,5-dihydro-1H-pyrrole-2,5-dione] here?
**A.** 101%

**Q.** Which viability at 48 h, 25 µM does the source give for `C=CC(=O)NCc1ccccc1CN1C(=O)NC2(CCCCC2)C1=O` [2-O11, N-{[2-({2,4-dioxo-1,3-diazaspiro[4.5]decan-3-yl}methyl)phenyl]methyl}prop-2-enamide] here?
**A.** 71%

**Q.** For `C=CC(=O)N[C@@H](CC(N)=O)c1cccc(Cl)c1` [1-I15, N-[(1S)-2-carbamoyl-1-(3-chlorophenyl)ethyl]prop-2-enamide], which viability at 48 h, 25 µM is on record?
**A.** 81.6%

**Q.** With `Cc1cccc(-n2c(C)cc(C(=O)CCl)c2C)c1` [10-A22, 2-chloro-1-[2,5-dimethyl-1-(3-methylphenyl)-1H-pyrrol-3-yl]ethan-1-one] as the compound, how does the viability at 48 h, 25 µM read?
**A.** 0.013%

**Q.** With `C=CC(=O)Nc1cccc(-c2nnnn2C(C)C)c1` [1-A16, N-{3-[1-(propan-2-yl)-1H-1,2,3,4-tetrazol-5-yl]phenyl}prop-2-enamide] as the compound, how does the viability at 48 h, 25 µM read?
**A.** 98.3%

**Q.** For `N#Cc1cccc2c1CC[C@H]2NC(=O)CCl` [7-D06, 2-chloro-N-[(1R)-4-cyano-2,3-dihydro-1H-inden-1-yl]acetamide], which viability at 48 h, 25 µM is on record?
**A.** 0.673%

**Q.** With `N#CC(=Cc1ccc(N2CCCCC2)cc1)C(=O)NC1CC1` [8-O04, 2-cyano-N-cyclopropyl-3-[4-(piperidin-1-yl)phenyl]prop-2-enamide] as the compound, how does the viability at 48 h, 25 µM read?
**A.** 82.3%

**Q.** With `COc1ccc(C=C(C#N)C(=O)Nc2ccc3c(c2)OCCO3)cc1O` [8-H19, 2-cyano-N-(2,3-dihydro-1,4-benzodioxin-6-yl)-3-(3-hydroxy-4-methoxyphenyl)prop-2-enamide] as the compound, how does the viability at 48 h, 25 µM read?
**A.** 99.8%

**Q.** With `O=C(CCl)NC(=O)c1ccc(OC(F)F)cc1` [5-J22, N-(2-chloroacetyl)-4-(difluoromethoxy)benzamide] as the compound, how does the viability at 48 h, 25 µM read?
**A.** 108%

**Q.** Which viability at 48 h, 25 µM does the source give for `O=C(CCl)NC(c1ccc(F)cc1)c1cccs1` (stereo not shown) [4-K18, 2-chloro-N-[(4-fluorophenyl)(thiophen-2-yl)methyl]acetamide] here?
**A.** 0.21%

**Q.** Which viability at 48 h, 25 µM does the source give for `Cc1c(C#N)c(NC(=O)CCl)n(Cc2ccccc2)c1C` [4-M21, N-(1-benzyl-3-cyano-4,5-dimethyl-1H-pyrrol-2-yl)-2-chloroacetamide] here?
**A.** -0.247%
